Assay results published in patent US10550171B2, “Immunomodulatory peptides and methods of use thereof” (THE GOVERNORS OF THE UNIVERSITY OF ALBERTA, priority 2012, dated 2020).

Key:
[1] = target: T1, binding of IL28A to IL-28R (Homo sapiens, UniProt Q8IU57); experiment: ELISA assay, effect of peptides on binding of IL28A to IL-28R; details: increasing peptide concentrations
T1 sequence (Q8IU57 21-228 limits assumed): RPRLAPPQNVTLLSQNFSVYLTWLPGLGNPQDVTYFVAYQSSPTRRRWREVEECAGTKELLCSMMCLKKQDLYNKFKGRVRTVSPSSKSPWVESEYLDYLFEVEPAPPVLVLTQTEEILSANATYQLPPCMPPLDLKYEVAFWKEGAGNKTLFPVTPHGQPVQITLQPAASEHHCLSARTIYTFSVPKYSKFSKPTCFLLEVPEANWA

STAT1 phosphorylation = experiment: STAT-1 phosphorylation in THP1-derived macrophages, flow cytometry; assay type: cell-based; details: IL28B 100 ng/mL, peptide 1 at 10 μM for 90 min before IL28B, peptide 17 added together with IL28B
Method: The effect of peptide 1 and peptide 17 on STAT-1 phosphorylation in macrophages was tested using flow cytometry.
STAT1 phosphorylation is one of the earliest events that occur after the IFN receptor is activated. THP1 cells (a monocytic cell line) were stimulated for 3 days with phorbol-12-myristate-13-acetate (PMA) and then rested for another 5 days in standard cultivation methods (37° C. 5% CO2) with RPMI containing 10% fetal calf serum (FCS). After 3 days, the PMA was removed and fresh media added. This treatment induces maturation of THP1, such that the THP1 cells are induced to express macrophage markers (Daigneault et al. (2010) PLoSOne 5:e8668). Next, the cells were treated: (i) either for 90 min with peptide 1 at a concentration of 10 μM and then added IL28B at 100 ng/mL or (ii) peptide 17 was added directly together with IL28B. “Scramble p1” is a control peptide with the amino acid sequence of p1 scrambled. Scramble p17” is a control peptide with the amino acid sequence of p17 scrambled.

[2] = target: T2, binding of IL29 to IL-28R (Homo sapiens, UniProt Q8IU57); experiment: ELISA assay, effect of peptides on binding of IL29 to IL-28R; details: for inhibition of the binding of IL29 to IL-28R: increasing peptide concentrations
T2 sequence (Q8IU57 21-228 limits assumed): T1 sequence (Q8IU57 21-228 limits assumed)

CMV (Towne strain) = experiment: CMV replication plaque assay in HFF-1 cells; assay type: cell-based, cytomegalovirus (CMV); details: HFF-1 cells pre-treated 2 h with peptide 10 μM; for inhibitory effect on CMV replication (viral growth curves, plaque assay): CMV Towne MOI 0.03, day 4 and day 6
Method: The data are depicted in FIG. 1. […] HFF-1 cells were pre-treated for 2 h with peptides (10 μM), then washed and infected with CMV (Towne strain, MOI 0.03) and viral growth curves were generated.
Peptides PRT ([…]; SEQ ID NO:23). LKY (ASVTFNLFRLLTRDLKY; SEQ ID NO: 15), and LNC (ASVTFNLFRLLTRDLNC; SEQ ID NO: 16) were pre-incubated at a concentration of 10 μM with HFF-1 cells (ATCC HS97FS. SCRC1041, and CCD1112SK). The cells were washed, then challenged with IL-28B (100 ng/ml) for 30 minutes. Peptides REV ([…]; SEQ ID NO:24), FKG ([…]; SEQ ID NO:25), and APP ([…]; SEQ ID NO:26) were pre-incubated for 2 hours with IL-28B, then added to HFF1 for 30 minutes. Proteins were harvested and STAT2 phosphorylation was determined by Western blot analysis. The effect of the peptides on CMV replication in HFF-1 cells was also tested. HFF-1 cells were pre-treated for 2 hours with peptides (10 μM) or control. CMV replication was determined 4 days later using plaque assays. The data are depicted in FIGS. 19 and 20. In FIG. 19, the data are from Western blot experiments. HFF11 cells were pre-treated with individual peptides for 2 hours, then challenged with IL28B for 30 minutes. Results were normalized to STAT2 and β-tubulin baseline expression. In FIG. 20, the data are from plaque assays. HFF1 cells were pre-treated with individual peptides for 2 hours, then infected with CMV Towne strain (multiplicity of infection 0.03). Plaque forming units (PFU) at day 4 were determined.

STAT2 phosphorylation = STAT2 phosphorylation in HFF-1 cells challenged with IL-28B, Western blot; assay type: cell-based, human; details: for blocking of STAT-2 phosphorylation: peptide pre-incubated 2 hours with IL-28B, then added to HFF1 for 30 minutes; for reduction in STAT2-phosphorylation: HFF-1 cells pre-incubated with peptide 10 μM, washed, IL-28B 100 ng/ml 30 minutes, normalized to STAT2 and β-tubulin
IL28R1 = target: T3, IL28R1 (Homo sapiens, UniProt Q8IU57); experiment: Biacore assay, binding of interferon lambda ligands to IL28R1
T3 sequence (Q8IU57 21-520): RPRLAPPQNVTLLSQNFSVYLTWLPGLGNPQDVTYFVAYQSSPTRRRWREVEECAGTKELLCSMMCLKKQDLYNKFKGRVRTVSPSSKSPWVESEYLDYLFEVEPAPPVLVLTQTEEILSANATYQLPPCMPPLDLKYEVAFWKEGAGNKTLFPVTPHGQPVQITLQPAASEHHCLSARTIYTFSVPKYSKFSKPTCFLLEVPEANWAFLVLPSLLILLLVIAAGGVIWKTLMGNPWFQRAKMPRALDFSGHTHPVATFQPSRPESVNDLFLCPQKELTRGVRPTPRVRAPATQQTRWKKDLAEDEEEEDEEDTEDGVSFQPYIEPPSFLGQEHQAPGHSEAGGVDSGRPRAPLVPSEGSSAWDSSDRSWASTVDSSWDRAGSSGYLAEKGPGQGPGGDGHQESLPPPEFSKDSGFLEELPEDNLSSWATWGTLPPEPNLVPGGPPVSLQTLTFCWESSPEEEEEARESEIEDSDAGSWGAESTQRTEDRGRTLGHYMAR
Text: FIG. 9 depicts binding affinity (KD values in PM) of ligands IL28A, IL28B, and IL29, and of peptides 1, 2, 6, 7, and 15-18, for IL28R1. […] In […], the KD values indicate differences between peptides.
FIG. 10 depicts the effect of peptides on binding of IL29 to IL-28R. Binding of IL29 was disrupted by addition of increasing peptide concentrations.

Molecule: KLKNWSCSSPVFPGNWDLRL [Peptide 17]
- inhibition of the binding of IL28A to IL-28R [1]: potent
- STAT1 phosphorylation (STAT1 phosphorylation): reduce STAT1 phosphorylation

Molecule: ELASFKKARDALEESLKL [Peptide 1]
- IC50 for inhibition of IL29 binding, as excess of peptide over the natural ligand [2]: 50 time excess of peptide over the natural ligand
- inhibition of the binding of IL29 to IL-28R [2]: highly potent
- STAT1 phosphorylation (STAT1 phosphorylation): reduce STAT1 phosphorylation
- inhibitory effect on CMV replication (viral growth curves, plaque assay) (CMV (Towne strain)): strong inhibitory effects

Molecule: VAYQSSPTRRRWREV [Peptide 8]
- blocking of STAT-2 phosphorylation (STAT2 phosphorylation): None of peptides REV, FKG, and APP blocked

Molecule: ASVTFNLFRLLTRDLKY [Peptide 6]
- inhibition of the binding of IL29 to IL-28R [2]: highly potent
- reduction in STAT2-phosphorylation (STAT2 phosphorylation): 40%
- inhibitory effect on CMV replication (viral growth curves, plaque assay) (CMV (Towne strain)): strong inhibitory effects

Molecule: SEYLDYLFEVEPAPP [Peptide 10]
- blocking of STAT-2 phosphorylation (STAT2 phosphorylation): None of peptides REV, FKG, and APP blocked

Molecule: ASVTFNLFRLLTRDLNC [Peptide 7]
- reduction in STAT2-phosphorylation (STAT2 phosphorylation): 34%
- lower CMV replication (plaque forming units) (CMV (Towne strain); CMV Towne MOI 0.03, day 4 after infection): 2.5 log10
- inhibitory effect on CMV replication (viral growth curves, plaque assay) (CMV (Towne strain)): strong inhibitory effects

Molecule: LLKDCRCHSRLFPRTWDLRQ [Peptide 16]
- inhibition of the binding of IL28A to IL-28R [1]: potent

Molecule: LLKDCKCRSRLFPRTWDLRQ [Peptide 15]
- inhibition of the binding of IL28A to IL-28R [1]: potent

Molecule: MMCLKKQDLYNKFKG (MMCLKKQDLYNKFRG) [Peptide 9]
- blocking of STAT-2 phosphorylation (STAT2 phosphorylation): None of peptides REV, FKG, and APP blocked

B1: IL28B: polypeptide of about 196 amino acids which binds a heterodimeric IL-28R complex (protein, listed as Homo sapiens)
chain: MTGDCMPVLVLMAAVLTVTGAVPVARLRGALPDARGCHIAQFKSLSPQELQAFKRAKDALEESLLLKDCKCRSRLFPRTWDLRQLQVRERPVALEAELALTLKVLEATADTDPALGDVLDQPLHTLHHILSQLRACIQPQPTAGPRTRGRLHHWLHRLQEAPKKESPGCLEASVTFNLFRLLTRDLNCVASGDLCV
- binding affinity towards IL28R1 (IL28R1): significant lower binding affinity

B2: IL29: polypeptide of about 200 amino acids which binds a heterodimeric IL-28 receptor complex (protein, listed as Homo sapiens)
chain: MAAAWTVVLVTLVLGLAVAGPVPTSKPTTTGKGCHIGRFKSLSPQELASFKKARDALEESLKLKNWSCSSPVFPGNWDLRLLQVRERPVALEAELALTLKVLEAAAGPALEDVLDQPLHTLHHILSQLQACIQPQPTAGPRPRGRLHHWLHRLQEAPKKESAGCLEASVTFNLFRLLTRDLKYVADGNLCLRTSTHPEST
- binding affinity towards IL28R1 (IL28R1): highest binding affinity of all Interferon lambdas
